Experimental data taken from patent US9469650B2, “Melampomagnolide B derivatives” (BOARD OF TRUSTEES OF THE UNIVERSITY OF ARKANSAS, priority 2013, dated 2016).

What was measured:
[1] = tested on: T-47D; assay: panel of 60 human tumor cell lines, growth inhibition (Breast Cancer); settings: Homo sapiens, T47D
[2] = tested on: SW-620; assay: panel of 60 human tumor cell lines, growth inhibition (Colon Cancer); settings: Homo sapiens
[3] = tested on: PC-3; assay: panel of 60 human tumor cell lines, growth inhibition (Prostate Cancer); settings: Homo sapiens
[4] = tested on: SN12C; assay: panel of 60 human tumor cell lines, growth inhibition (Renal Cancer); settings: Homo sapiens
[5] = tested on: OVCAR-3; assay: panel of 60 human tumor cell lines, growth inhibition (Ovarian Cancer)
[6] = tested on: CAKI-1; assay: panel of 60 human tumor cell lines, growth inhibition (Renal Cancer); settings: Homo sapiens
[7] = tested on: MDA-MB-231/ATCC; assay: panel of 60 human tumor cell lines, growth inhibition (Breast Cancer); settings: Homo sapiens
[8] = tested on: NCI/ADR-RES; assay: panel of 60 human tumor cell lines, growth inhibition (Ovarian Cancer); settings: Homo sapiens
[9] = tested on: SNB-75; assay: panel of 60 human tumor cell lines, growth inhibition (CNS Cancer); settings: Homo sapiens
[10] = tested on: LOX IMVI; assay: panel of 60 human tumor cell lines, growth inhibition (Melanoma); settings: Homo sapiens
[11] = tested on: MCF7; assay: panel of 60 human tumor cell lines, growth inhibition (Breast Cancer); settings: Homo sapiens
[12] = tested on: M14; assay: panel of 60 human tumor cell lines, growth inhibition (Melanoma); settings: Homo sapiens
[13] = tested on: SK-MEL-28; assay: as above; settings: Homo sapiens
[14] = tested on: MOLT-4; assay: panel of 60 human tumor cell lines, growth inhibition (Leukemia); settings: Homo sapiens
[15] = tested on: SK-MEL-2; assay: panel of 60 human tumor cell lines, growth inhibition (Melanoma); settings: Homo sapiens
[16] = tested on: SK-MEL-5; assay: as above; settings: Homo sapiens
[17] = tested on: UO-31; assay: panel of 60 human tumor cell lines, growth inhibition (Renal Cancer); settings: Homo sapiens
[18] = tested on: A549/ATCC; assay: panel of 60 human tumor cell lines, growth inhibition (Non-Small Cell Lung Cancer); settings: Homo sapiens
[19] = tested on: HCT-116; assay: panel of 60 human tumor cell lines, growth inhibition (Colon Cancer); settings: Homo sapiens

C=C1C(=O)O[C@H]2[C@H]1CC/C(COC(=S)n1ccnc1)=C\CC[C@@]1(C)O[C@@H]21 [JVM 66]
GI50 [1]: 12.9 µM | CC50 ([1]; read-out: LC50): > 100 µM | IC (TGI) ([1]; read-out: TGI): 42.4 µM | GI50 ([2]; SW-620, SW-620, NCI five dose): 4.86 µM | CC50 ([2]; SW-620, read-out: LC50): 78.3 µM | IC (TGI) ([2]; SW-620, read-out: TGI): 21.7 µM | GI50 ([3]; PC-3): 12 µM | CC50 ([3]; PC-3, read-out: LC50): > 100 µM | IC (TGI) ([3]; PC-3, read-out: TGI): 66.6 µM | GI50 [4]: 13.7 µM | CC50 ([4]; read-out: LC50): 85.3 µM | IC (TGI) ([4]; read-out: TGI): 18.8 µM | GI50 ([5]; Homo sapiens, OVCAR-3): 10.4 µM | CC50 ([5]; Homo sapiens, OVCAR-3, read-out: LC50): 49.2 µM | Percent Growth ([5]; OVCAR-3, Log10 Concentration −4.0): −96% | Percent Growth ([5]; OVCAR-3, Log10 Concentration −5.0): 53% | Percent Growth ([5]; OVCAR-3, Log10 Concentration −6.0): 103% | Percent Growth ([5]; OVCAR-3, Log10 Concentration −7.0): 130% | Percent Growth ([5]; OVCAR-3, Log10 Concentration −8.0): 101% | GI50 ([6]; CAKI-1): 12.6 µM | CC50 ([6]; CAKI-1, read-out: LC50): 73.8 µM | IC (TGI) ([6]; CAKI-1, read-out: TGI): 30.5 µM | GI50 ([7]; MDA-MB-231): 15.8 µM | CC50 ([7]; MDA-MB-231, read-out: LC50): 75.7 µM | IC (TGI) ([7]; MDA-MB-231, read-out: TGI): 34.6 µM | GI50 [8]: 30.1 µM | CC50 ([8]; read-out: LC50): > 100 µM | IC (TGI) ([8]; read-out: TGI): > 100 µM | GI50 ([9]; SNB-75): 39.3 µM | CC50 ([9]; SNB-75, read-out: LC50): > 100 µM | IC (TGI) ([9]; SNB-75, read-out: TGI): > 106 µM | GI50 ([10]; NCI five dose): 3.23 µM | CC50 ([10]; read-out: LC50): 43.1 µM | IC (TGI) ([10]; read-out: TGI): 11.8 µM | GI50 ([11]; MCF7, MCF7, NCI five dose): 4.19 µM | CC50 ([11]; MCF7, read-out: LC50): 76.7 µM | IC (TGI) ([11]; MCF7, read-out: TGI): 19.8 µM | GI50 ([12]; M14): 12.6 µM | CC50 ([12]; M14, read-out: LC50): 89.2 µM | IC (TGI) ([12]; M14, read-out: TGI): 33.6 µM | GI50 ([13]; SK-MEL-28): 15.7 µM | CC50 ([13]; SK-MEL-28, read-out: LC50): 99.3 µM | IC (TGI) ([13]; SK-MEL-28, read-out: TGI): 39.5 µM | GI50 ([14]; MOLT-4): 6.38 µM | CC50 ([14]; MOLT-4, read-out: LC50): > 100 µM | IC (TGI) ([14]; MOLT-4, read-out: TGI): 34.4 µM | GI50 ([15]; SK-MEL-2): 16.4 µM | CC50 ([15]; SK-MEL-2, read-out: LC50): 93 µM | IC (TGI) ([15]; SK-MEL-2, read-out: TGI): 39.6 µM | GI50 ([16]; SK-MEL-5): 13.3 µM | CC50 ([16]; SK-MEL-5, read-out: LC50): 55.6 µM | IC (TGI) ([16]; SK-MEL-5, read-out: TGI): 27.7 µM | GI50 ([17]; UO-31): 8.37 µM | CC50 ([17]; UO-31, read-out: LC50): 58.1 µM | IC (TGI) ([17]; UO-31, read-out: TGI): 23.4 µM | CC50 ([18]; A549, read-out: LC50): > 100 µM | IC (TGI) ([18]; A549, read-out: TGI): 106 µM | GI50 ([19]; HCT-116, HCT-116, NCI five dose): 2.47 µM | CC50 ([19]; HCT-116, read-out: LC50): 33 µM | IC (TGI) ([19]; HCT-116, read-out: TGI): 7.03 µM
